Assay results: US11020391B2, “CRMP2 sumoylation inhibitors and uses thereof” (ARIZONA BOARD OF REGENTS ON BEHALF OF THE UNIVERSITY OF …, priority 2015, dated 2021)

Assays:
[1] = system: TTX-S NaV1.7 currents in rat DRGs; experiment: Patch clamp TTX-S NaV1.7 currents in rat DRGs; format: cell-based; details: FIG. 5
Description: Culturing and Transfection of rat Primary Dorsal Root Ganglia (DRG) Neurons: Rat DRG neurons were isolated from 150-174 g Sprague-Dawley rats and then transfected using known procedures. In brief, removing dorsal skin and muscle and cutting the vertebral bone processes parallel to the dissection stage exposed DRGs. DRGs were then collected, trimmed at their roots, and digested in 3 ml bicarbonate free, serum free, sterile DMEM (Cat #11965, Thermo Fisher Scientific, Waltham, Mass.) solution containing neutral protease (3.125 mg·ml-1, Cat #LS02104, Worthington, Lakewood, N.J.) and collagenase Type I (5 mg·ml-1, Cat #LS004194, Worthington, Lakewood, N.J.) and incubated for 45 min at 37° C. under gentile agitation. Dissociated DRG neurons (˜1.5×106) were then gently centrifuged to collect cells and washed with DRG media DMEM containing 1% penicillin/streptomycin sulfate from 10 000 μg/ml stock, 30 ng.ml-1 nerve growth factor, and 10% fetal bovine serum (Hyclone). Collected cells were re-suspended in Nucleofector transfection reagent containing plasmids or siRNA at the working concentrations listed above. Then, cells were subjected to electroporation protocol O-003 in an Amaxa Biosystem (Lonza, Basel, Switzerland) and plated onto poly-D-lysine—and laminin-coated glass 12- or 15-mm coverslips. Transfection efficiencies were routinely between 20% and 30% with about ˜10% cell death. […]

[2] = system: TTX-S NaV1.7 currents in human DRGs; experiment: Patch clamp H-infinity subtracted NaV1.7 currents in human DRGs; format: cell-based; details: FIG. 5
Description: Patch Clamp Electrophysiology: Whole cell voltage clamp and current clamp recordings were performed at room temperature using an EPC 10 Amplifier-HEKA. The internal solution for voltage clamp CAD cell recordings contained (in mM): 110CsCl, 5 MgSO4, 10 EGTA, 4 ATP Na2-ATP, and 25 HEPES (pH 7.3, 290-310 mOsm/L) and external solution contained (in mM): 100 NaCl, 10 tetraethylammonium chloride, 1 CaCl2, 1 CdCl2, 1 MgCl2, 10 D-glucose, 4 4-aminopyridine, 0.1 NiCl2, 10 HEPES (pH 7.3, 310-315 mosM/L). For DRG and HEK293 cells the internal solution for voltage clamp contained (in mM): 140CsF, 1.1Cs-EGTA, 10 NaCl, and 15 HEPES (pH 7.3, 290-310 mOsm/L) and external solution contained (in mM): 140 NaCl, 3 KCl, 30 tetraethylammonium chloride, 1 CaCl2, 0.5 CdCl2, 1 MgCl2, 10 D-glucose, 10 HEPES (pH 7.3, 310-315 mosM/L). […]
Voltage clamp protocols: CAD and HEK293 cells were subjected to current-density (I-V) and fast-inactivation voltage protocols. […] The TTX-R peak current density was always measured at depolarizations near 0 mV and within 10 ms of the voltage step protocol. […] Thus, sodium current present at 150 ms following a voltage pulse to −60 mV was analyzed, an established method of isolating Nav1.9 current. […]

[3] = PK profile of compound AZ002; details: in vivo
Text: In some instances, compounds of the invention are provided as a pharmaceutical acceptable salt. Suitable pharmaceutical acceptable salts include those disclosed herein. In some embodiments, pharmaceutically acceptable salts of compounds of the invention provide a better pharmacokinetics.

[4] = system: spared nerve injury model of neuropathic pain; experiment: Spared nerve injury model, mechanical hypersensitivity (paw withdrawal threshold); format: in vivo, rat; details: spinal administration 5 μg/10 μL; 7 days post-injury; n=6
Description: Rat Behavioral Pain Assay: Compound AZ002 reversed mechanical hypersensitivity in a model of nerve-injury induced chronic pain.
Data was analyzed using one-way ANOVA followed by Dunnett's Multiple Comparison Test using post injury baseline as control.
Indwelling intrathecal catheter: Rats were anesthetized (ketamine/xylazine anesthesia, 80/12 mg/kg i.p.; Sigma-Aldrich) and placed in a stereotaxic head holder. The cisterna magna was exposed and incised, and an 8-cm catheter (PE-10; Stoelting) was implanted terminating in the lumbar region of the spinal cord. Catheters were sutured (3-0 silk suture) into the deep muscle and externalized at the back of the neck; skin was closed with autoclips. After a recovery period of 5-7 days after implantation of the indwelling cannula, the spared nerve injury was induced.
Spared Nerve Injury (SNI): Under isoflurane anesthesia (5% induction, 2.0% maintenance in 2 L/min air), skin on the lateral surface of the left hind thigh was incised. […]
Mechanical Allodynia: Rats were allowed to acclimate within suspended wire mesh cages for 30 minutes prior to behavioral assessment. […] Paw withdrawal thresholds were calculated in grams using the Dixon non-parametric test and expressed as the Paw Withdrawal Threshold (mean±standard error; SEM) in GraphPad Prism 6.0. […]

[5] = system: human DRGs in a mixed glia-DRG co-culture; experiment: Cell morphology or health of human DRGs after overnight incubation; format: cell-based

SMILES: COc1cc(OC)cc(C(=O)Nc2ccc(N3CCN(C)CC3)cc2)c1 [AZ002]
- inhibition of TTX-S NaV1.7 currents [1]: inhibits
- inhibition of TTX-S NaV1.7 currents [2]: inhibits
- Cmax [3]: 263 ng/mL
- Tmax [3]: 2 h
- half-life [3]: 5.8 h
- AUC(0-t) ([3]; 0-24 hr): 2380 ng·h/mL
- bioavailability ([3]; read-out: bioavailability (F)): 31%
- reversal of mechanical hypersensitivity [4]: significantly reversed
- effect on cell morphology or health [5]: does not affect cell morphology or health
